Source: patent publication US9801374B2, “Active compound combinations comprising carboxamide derivatives” (BAYER CROPSCIENCE AG, priority 2012, dated 2017)

Columns and labels:
[1] = test system: Blumeria graminis f.sp. hordei; assay: Blumeria test (barley) / preventive; type: in vivo, Blumeria graminis f.sp. hordei on barley; settings: evaluated 7 days after inoculation
Method: (§1) • Solvent: 49 parts by weight of N,N-dimethylacetamide • Emulsifier: 1 part by weight of alkylaryl polyglycol ether
(§2) To produce a suitable preparation of active compound, 1 part by weight of active compound or active compound combination is mixed with the stated amounts of solvent and emulsifier, and the concentrate is diluted with water to the desired concentration.
(§3) To test for preventive activity, young plants are sprayed with the preparation of active compound or active compound combination at the stated rate of application.
After the spray coating has been dried, the plants are dusted with spores of Blumeria graminis f.sp. hordei.
The plants are placed in the greenhouse at a temperature of approximately 18° C. and a relative atmospheric humidity of approximately 80% to promote the development of mildew pustules.
The test is evaluated 7 days after the inoculation. 0% means an efficacy which corresponds to that of the untreated control, while an efficacy of 100% means that no disease is observed.

Leptosphaeria nodorum = Leptosphaeria nodorum test (wheat) / preventive; type: in vivo, Leptosphaeria nodorum on wheat; settings: evaluated 8 days after inoculation
Method: as §1, §2, §3
After the spray coating has been dried, the plants are sprayed with a spore suspension of Leptosphaeria nodorum. The plants remain for 48 hours in an incubation cabinet at approximately 20° C. and a relative atmospheric humidity of approximately 100%.
The plants are placed in the greenhouse at a temperature of approximately 22° C. and a relative atmospheric humidity of approximately 80%.
The test is evaluated 8 days after the inoculation. 0% means an efficacy which corresponds to that of the untreated control, while an efficacy of 100% means that no disease is observed.

Compound	Efficacy in % found ([1]; 5 ppm a.i.)	Efficacy in % found (Leptosphaeria nodorum; 25 ppm a.i.)	further results
CP(=O)(O)CCC(N)C(=O)O (stereo not shown) [(B-13.3), glufosinate-ammonium]	0%	–	–
O=C(O)CNCP(=O)(O)O [(B-14.1), glyphosate]	11%	–	–
CCOC(=O)C1=NOC(c2ccccc2)(c2ccccc2)C1 [(D-19), isoxadifen-ethylen]	–	17%	–
CCOC(=O)C1=NN(c2ccc(Cl)cc2Cl)C(C)(C(=O)OCC)C1 [(D-23), mefenpyr-diethyl]	–	17%	–
COc1ccccc1C(=O)NS(=O)(=O)c1ccc(C(=O)NC2CC2)cc1 [(D-62), N-{[4-(cyclopropylcarbamoyl)phenyl]-sulfonyl}-2-methoxybenzamide]	–	0%	–
CC(C)c1ccc(Cl)cc1CN(C(=O)c1c(C(F)F)nn(C)c1F)C1CC1 [compound A5, N-(5-chloro-2-isopropylbenzyl)-N-cyclopropyl-3-(difluoromethyl)-5-fluoro-1-methyl-1H-pyrazole-4-carboxamide]	–	–	Efficacy in % found (Leptosphaeria nodorum; 31 ppm a.i.): 50%; Efficacy in % found ([1]; 62.5 ppm a.i.): 56%
